Test results: PubChem BioAssay AID248 (DTP/NCI, 2004)
Where “and” joins values, the source holds several entries; their conditions need not be identical. Equal values may be shown once. Toxic doses and inconclusive results are not listed. Cut-off read from the data, not from the text of the source: active = T/C of 150% or more; inactive = T/C below 125%.

Tested on: L1210 leukemia ip in BDF1 mice, survival T/C
Assay: NCI In Vivo Anticancer Drug Screen. Data for tumor model L1210 Leukemia (intraperitoneal) in B6D2F1 (BDF1) mice
Conditions: endpoint: mean survival time, higher = longer survival
Method in brief: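 Each compound was tested against a transplantable tumor grown in mice. The endpoint was survival, with treated animals benchmarked against vehicle controls as a simple ratio.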

[1] = dose: 100.0 mg/kg/injection, schedule: Q01DX009 (ip), vehicle: Klucel (hydroxypropylcellulose) (HPC)
[2] = dose: 200.0 mg/kg/injection, schedule: Q01DX009 (ip), vehicle: Klucel (hydroxypropylcellulose) (HPC)
[3] = dose: 25.0 mg/kg/injection, schedule: Q01DX009 (ip), vehicle: saline with Tween-80
[4] = dose: 100.0 mg/kg/injection, schedule: Q04DX003 (ip), vehicle: saline with Tween-80
[5] = dose: 100.0 mg/kg/injection, schedule: Q01DX009 (ip), vehicle: saline with Tween-80
[6] = dose: 200.0 mg/kg/injection, schedule: Q01DX009 (ip), vehicle: saline with Tween-80
[7] = dose: 100.0 mg/kg/injection, schedule: Q01DX001 (ip), vehicle: saline with Tween-80
[8] = dose: 200.0 mg/kg/injection, schedule: Q01DX001 (ip), vehicle: saline with Tween-80
[9] = dose: 400.0 mg/kg/injection, schedule: Q01DX001 (ip), vehicle: saline with Tween-80
[10] = dose: 50.0 mg/kg/injection, schedule: Q01DX001 (ip), vehicle: saline
[11] = dose: 100.0 mg/kg/injection, schedule: Q01DX001 (ip), vehicle: saline
[12] = dose: 200.0 mg/kg/injection, schedule: Q01DX001 (ip), vehicle: saline

Measured: T/C

O=C(Oc1cccc(O)c1)c1ccccc1
inactive: [1] 100 % of control | [2] 102 % of control | dose: 400.0 mg/kg/injection, schedule: Q01DX009 (ip), vehicle: Klucel (hydroxypropylcellulose) (HPC) 94 % of control

Cc1ccc(-n2c(=S)[nH]c3ccc(C)cc3c2=O)cc1
inactive: [3] 87 % of control | [4] 87 % of control

CCOC(=O)c1ccc(N=NN(CCF)CCF)cc1
inactive: dose: 10.0 mg/kg/injection, schedule: Q01DX Z (ip), vehicle: saline 95 % of control | dose: 30.0 mg/kg/injection, schedule: Q01DX Z (ip), vehicle: saline 94 % of control | dose: 100.0 mg/kg/injection, schedule: Q01DX Z (ip), vehicle: saline 89 % of control | dose: 300.0 mg/kg/injection, schedule: Q01DX Z (ip), vehicle: saline 95 % of control

CCOC(=O)c1ccc(Oc2ncc([N+](=O)[O-])s2)cc1
inactive: dose: 1.56 mg/kg/injection, schedule: Q01DX001 (ip), vehicle: saline 107 % of control | dose: 1.56 mg/kg/injection, schedule: Q04DX003 (ip), vehicle: saline 96 % of control | dose: 3.12 mg/kg/injection, schedule: Q01DX001 (ip), vehicle: saline 110 % of control | dose: 3.12 mg/kg/injection, schedule: Q04DX003 (ip), vehicle: saline 100 % of control | dose: 6.25 mg/kg/injection, schedule: Q01DX001 (ip), vehicle: saline 98 % of control | dose: 6.25 mg/kg/injection, schedule: Q04DX003 (ip), vehicle: saline 96 % of control | dose: 9.2 mg/kg/injection, schedule: Q04DX003 (ip), vehicle: saline 103 % of control | dose: 14.0 mg/kg/injection, schedule: Q04DX003 (ip), vehicle: saline 98 % of control | dose: 21.0 mg/kg/injection, schedule: Q04DX003 (ip), vehicle: saline 96 % of control | dose: 29.0 mg/kg/injection, schedule: Q04DX003 (ip), vehicle: saline with Tween-80 103 % of control | dose: 29.0 mg/kg/injection, schedule: Q04DX003 (ip), vehicle: saline 93 % of control | dose: 45.0 mg/kg/injection, schedule: Q04DX003 (ip), vehicle: saline 102 % of control | dose: 65.0 mg/kg/injection, schedule: Q04DX003 (ip), vehicle: saline with Tween-80 86 % of control

CC(C)(C)OC(=O)NC(CCCCNC(=O)C(F)(F)F)C(=O)ON1C(=O)CCC1=O (centres undefined)
inactive: [3] 93 % of control | dose: 50.0 mg/kg/injection, schedule: Q01DX009 (ip), vehicle: saline with Tween-80 95 % of control | [5] 90 % of control

O=C(O)C1(c2ccc(-c3ccccc3)cc2)CCCCC1
inactive: [4] 96 % of control | dose: 200.0 mg/kg/injection, schedule: Q04DX003 (ip), vehicle: saline with Tween-80 96 % of control | dose: 400.0 mg/kg/injection, schedule: Q04DX003 (ip), vehicle: saline with Tween-80 100 % of control

O=C(Nc1cccc(Cl)c1)Nc1ccccc1Cl
inactive: [5] 100 % of control | [6] 97 % of control | dose: 400.0 mg/kg/injection, schedule: Q01DX009 (ip), vehicle: saline with Tween-80 96 % of control

Cc1ccc(-n2nnnc2N)c(C)c1
inactive: dose: 100.0 mg/kg/injection, schedule: Q04DX003 (ip), vehicle: saline 94 % of control | dose: 200.0 mg/kg/injection, schedule: Q04DX003 (ip), vehicle: saline 91 % of control | dose: 400.0 mg/kg/injection, schedule: Q04DX003 (ip), vehicle: saline 94 % of control

CNC(=O)CCC(NS(=O)(=O)c1ccc(C)cc1)C(=O)O (centres undefined)
inactive: [7] 100 % of control | [8] 95 % of control | [9] 97 % of control

ICc1ccnc2ccccc12
inactive: dose: 100.0 mg/kg/injection, schedule: Q01DX001 (ip), vehicle: other 100 % of control | dose: 200.0 mg/kg/injection, schedule: Q01DX001 (ip), vehicle: other 103 % of control | dose: 400.0 mg/kg/injection, schedule: Q01DX001 (ip), vehicle: other 100 % of control

CN=NNc1ccc(C)cc1
inactive: dose: 25.0 mg/kg/injection, schedule: Q01DX009 (ip), vehicle: Klucel (hydroxypropylcellulose) (HPC) 89 % of control | [10] 108 % of control | dose: 50.0 mg/kg/injection, schedule: Q01DX009 (ip), vehicle: Klucel (hydroxypropylcellulose) (HPC) 105 % of control and 117 % of control | [11] 108 % of control | [1] 102 % of control and 120 % of control | dose: 150.0 mg/kg/injection, schedule: Q01DX009 (ip), vehicle: Klucel (hydroxypropylcellulose) (HPC) 113 % of control | [12] 116 % of control | [2] 99 % of control and 91 % of control

O=C(O)c1cccc2[nH]c(=O)oc(=O)c12
inactive: [5] 103 % of control | [6] 106 % of control

O=[N+]([O-])c1cccc(OCCCCBr)c1
inactive: dose: 100.0 mg/kg/injection, schedule: Q04DX003 (ip), vehicle: other 97 % of control | dose: 200.0 mg/kg/injection, schedule: Q04DX003 (ip), vehicle: other 110 % of control | dose: 400.0 mg/kg/injection, schedule: Q04DX003 (ip), vehicle: other 102 % of control

Nc1nc2nc3c(nc2c(=O)[nH]1)CN(C1CCCCC1)C3=O
inactive: dose: 75.0 mg/kg/injection, schedule: Q01DX001 (ip), vehicle: carboxymethylcellulose (CMC) 96 % of control | dose: 150.0 mg/kg/injection, schedule: Q01DX001 (ip), vehicle: carboxymethylcellulose (CMC) 94 % of control

C(=N\OCCc1ccccc1)/c1cccnc1
inactive: dose: 100.0 mg/kg/injection, schedule: Q01DX009 (ip), vehicle: saline sonified 98 % of control | dose: 200.0 mg/kg/injection, schedule: Q01DX009 (ip), vehicle: saline sonified 100 % of control | dose: 400.0 mg/kg/injection, schedule: Q01DX009 (ip), vehicle: saline sonified 102 % of control

O=c1ccc(=O)n(CCc2ccccn2)[nH]1
inactive: [10] 97 % of control | [11] 97 % of control | [12] 94 % of control | dose: 400.0 mg/kg/injection, schedule: Q01DX001 (ip), vehicle: saline 97 % of control

CN1CCOc2ccccc2OCCOCCOc2ccccc2OCC1
inactive: dose: 100.0 mg/kg/injection, schedule: Q01DX001 (ip), vehicle: Klucel (hydroxypropylcellulose) (HPC) 100 % of control | dose: 200.0 mg/kg/injection, schedule: Q01DX001 (ip), vehicle: Klucel (hydroxypropylcellulose) (HPC) 96 % of control | dose: 400.0 mg/kg/injection, schedule: Q01DX001 (ip), vehicle: Klucel (hydroxypropylcellulose) (HPC) 102 % of control

COC(=O)c1ccccc1NC(=O)C(Cl)Cl
inactive: dose: 100.0 mg/kg/injection, schedule: Q01DX009 (ip), vehicle: other 106 % of control | dose: 200.0 mg/kg/injection, schedule: Q01DX009 (ip), vehicle: other 93 % of control | dose: 400.0 mg/kg/injection, schedule: Q01DX009 (ip), vehicle: other 98 % of control

CCOC(=O)c1ccc(NC(=O)Nc2cc(OC)c(Cl)cc2OC)cc1
inactive: [7] 93 % of control | dose: 100.0 mg/kg/injection, schedule: Q04DX002 (ip), vehicle: saline with Tween-80 97 % of control | [8] 101 % of control | dose: 200.0 mg/kg/injection, schedule: Q04DX002 (ip), vehicle: saline with Tween-80 100 % of control | [9] 88 % of control | dose: 400.0 mg/kg/injection, schedule: Q04DX002 (ip), vehicle: saline with Tween-80 97 % of control
